In patent US12448399B2, “Cereblon-based KRAS degrading PROTACs and uses related thereto” (Arvinas Operations, Inc., priority 2023, dated 2025):
Blank lines part the entries; values can stand above or below the compound they belong to.

Target: T1, KRas-G12D (Homo sapiens, UniProt P01116, G12D)
T1 construct: insert the HiBiT tag onto the N-terminus of one or more of the endogenous KRas alleles; host or cells: AsPC-1 HiBiT-KRasG12D knock-in clone (one tagged allele, two untagged KRasG12D alleles)
Test: HiBiT Degradation Assay (G12D), AsPC-1 HiBiT-KRasG12D cells, 24 hr
Assay type: cell-based
Conditions: for Dmax: ASPC1, AsPC-1 cells, maximum degradation observed; for DC50: AsPC-1 cells
In short: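 Degradation was read after 24 hr compound exposure (0.5% DMSO, 37° C) by Nano-Glo HiBiT lytic luminescence in AsPC-1 cells carrying a HiBiT tag on one of three KRasG12D alleles. Signal relative to DMSO gave DC50 and Dmax by 4-parameter fit; alamar blue fluorescence monitored cytotoxicity.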

T1 sequence (P01116 1-188 isoform P01116-2 G12D): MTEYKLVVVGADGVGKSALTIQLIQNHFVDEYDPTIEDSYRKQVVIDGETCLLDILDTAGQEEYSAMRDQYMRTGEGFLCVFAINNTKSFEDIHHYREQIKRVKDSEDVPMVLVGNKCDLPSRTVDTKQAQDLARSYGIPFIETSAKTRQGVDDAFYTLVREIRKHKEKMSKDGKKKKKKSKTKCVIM

Compound: C#Cc1c(F)ccc2cc(O)cc(-c3ncc4c(N5CC6CCC(C5)N6)nc(OCCN5CCC(CC6CCN(c7ccc8c(c7)n(C)c(=O)n8C7CCC(=O)NC7=O)CC6)CC5)nc4c3F)c12 (stereo not shown) [Compound 89, 3-(5-{4-[(1-{2-[(4-{3,8-diazabicyclo[3.2.1]octan-3-yl}-7-(8-ethynyl-7-fluoro-3-hydroxynaphthalen-1-yl)-8-fluoropyrido[4,3-d]pyrimidin-2-yl)oxy]ethyl}piperidin-4-yl)methyl]piperidin-1-yl}-3-methyl-2-oxo-2,3-dihydro-1H-1,3-benzodiazol-1-yl)piperidine-2,6-dione]
Dmax: > 70%
DC50: < 5.1 µM

Compound: C#Cc1c(F)ccc2cc(O)cc(-c3ncc4c(N5CC6CCC(C5)N6)nc(OCCN5CCC6(CC5)CCN(CC5CCN(c7ccc8c(c7Cl)CN(C7CCC(=O)NC7=O)C8=O)CC5)CC6)nc4c3F)c12 (stereo not shown) [Compound 220, 3-(4-chloro-5-{4-[(9-{2-[(4-{3,8-diazabicyclo[3.2.1]octan-3-yl}-7-(8-ethynyl-7-fluoro-3-hydroxynaphthalen-1-yl)-8-fluoropyrido[4,3-d]pyrimidin-2-yl)oxy]ethyl}-3,9-diazaspiro[5.5]undecan-3-yl)methyl]piperidin-1-yl}-1-oxo-2,3-dihydro-1H-isoindol-2-yl)piperidine-2,6-dione]
Dmax: > 70%
DC50: < 5.1 µM

DC50: 0.1 to 5.25 µM
Compound: CCc1cccc2cc(O)cc(-c3ncc4c(N5CC6CCC(C5)N6)nc(OCCN5CCC(CN6CCN(CC7CCN(c8ccc9c(c8)C(=O)C(C8CCC(=O)NC8=O)C9=O)CC7)CC6)CC5)nc4c3F)c12 (stereo not shown) [Compound 20]

Compound: CCc1c(F)ccc2cc(O)cc(-c3ncc4c(N5CC6CCC(C5)N6)nc(OCCN5CCC(CC6CCN(CC7CCN(c8ccc9c(c8)CN(C8CCC(=O)NC8=O)C9=O)CC7)CC6)CC5)nc4c3F)c12 (stereo not shown) [Compound 86, 3-{5-[4-({4-[(1-{2-[(4-{3,8-diazabicyclo[3.2.1]octan-3-yl}-7-(8-ethyl-7-fluoro-3-hydroxynaphthalen-1-yl)-8-fluoropyrido[4,3-d]pyrimidin-2-yl)oxy]ethyl}piperidin-4-yl)methyl]piperidin-1-yl}methyl)piperidin-1-yl]-1-oxo-2,3-dihydro-1H-isoindol-2-yl}piperidine-2,6-dione]
Dmax: > 70%
DC50: < 5.1 µM

Compound: C#Cc1c(F)ccc2cccc(-c3ncc4c(N5CC6CCC(C5)N6)nc(OC[C@@]56CCCN5[C@H](CN5CCN(CC7CCN(c8ccc9c(c8)CN(C8CCC(=O)NC8=O)C9=O)CC7)CC5)CC6)nc4c3F)c12 (stereo partly shown) [Compound 147]
Dmax: > 70%
DC50: < 5.1 µM

DC50: 0.25 to 1 µM
Compound: CCc1cccc2cc(O)cc(-c3ncc4c(N5CC6CCC(C5)N6)nc(OCCN5CCC(C(C)(C)N6CCN(c7ccc8c(c7)C(=O)N(C7CCC(=O)NC7=O)C8=O)CC6)CC5)nc4c3F)c12 (stereo not shown) [Compound 13]

Compound: CCc1c(F)ccc2cc(O)cc(-c3ncc4c(N5CC6CCC(C5)N6)nc(OCCN5CCC(CC6CCN(CC7CCN(c8ccc9c(c8)n(C)c(=O)n9C8CCC(=O)NC8=O)CC7)CC6)CC5)nc4c3F)c12 (stereo not shown) [Compound 205, 3-{5-[4-({4-[(1-{2-[(4-{3,8-diazabicyclo[3.2.1]octan-3-yl}-7-(8-ethyl-7-fluoro-3-hydroxynaphthalen-1-yl)-8-fluoropyrido[4,3-d]pyrimidin-2-yl)oxy]ethyl}piperidin-4-yl)methyl]piperidin-1-yl}methyl)piperidin-1-yl]-3-methyl-2-oxo-2,3-dihydro-1H-1,3-benzodiazol-1-yl}piperidine-2,6-dione]
Dmax: > 70%
DC50: < 5.1 µM

DC50: 0.25 to 1 µM
Compound: CCc1cccc2cc(O)cc(-c3ncc4c(N5CC6CCC(C5)N6)nc(OC[C@]56CCCN5[C@@H](COC(=O)N5CCN(c7cccc8c7CN(C7CCC(=O)NC7=O)C8=O)CC5)CC6)nc4c3F)c12 (stereo partly drawn) [Compound 61, [(3R,8R)-8-[[4-(3,8-diazabicyclo[3.2.1]octan-3-yl)-7-(8-ethyl-3-hydroxy-1-naphthyl)-8-fluoro-pyrido[4,3-d]pyrimidin-2-yl]oxymethyl]-1,2,3,5,6,7-hexahydropyrrolizin-3-yl]methyl 4-[2-(2,6-dioxo-3-piperidyl)-1-oxo-isoindolin-4-yl]piperazine-1-carboxylate]

Compound: C#Cc1c(F)ccc2cc(O)cc(-c3ncc4c(N5CC6CCC(C5)N6)nc(OCCN5CCC(F)(CN6CCN(CC7CCN(c8ccc9c(c8)n(C)c(=O)n9C8CCC(=O)NC8=O)CC7)CC6)CC5)nc4c3F)c12 (stereo not shown) [Compound 200, 3-[5-[4-[[4-[[1-[2-[4-(3,8-diazabicyclo[3.2.1]octan-3-yl)-7-(8-ethynyl-7-fluoro-3-hydroxy-1-naphthyl)-8-fluoro-pyrido[4,3-d]pyrimidin-2-yl]oxyethyl]-4-fluoro-4-piperidyl]methyl]piperazin-1-yl]methyl]-1-piperidyl]-3-methyl-2-oxo-benzimidazol-1-yl]piperidine-2,6-dione]
Dmax: > 70%
DC50: < 5.1 µM

DC50: > 1 µM
Compound: CCc1cccc2cc(O)cc(-c3ncc4c(N5CC6CCC(C5)N6)nc(OCCN5CCC(CC6CCN(CC7CCN(c8cccc9c8CN(C8CCC(=O)N(C)C8=O)C9=O)CC7)CC6)CC5)nc4c3F)c12 (stereo not shown) [Compound 46]

DC50: < 5.1 µM
Compound: C#Cc1c(F)ccc2cccc(-c3ncc4c(N5CC6CCC(C5)N6)nc(OCC5(CN6CCC(F)(CN7CCN(c8ccc9c(c8)n(C)c(=O)n9C8CCC(=O)NC8=O)CC7)CC6)CC5)nc4c3F)c12 (stereo not shown) [Compound 228, 3-[5-[4-[[1-[[1-[[4-(3,8-diazabicyclo[3.2.1]octan-3-yl)-7-(8-ethynyl-7-fluoro-1-naphthyl)-8-fluoro-pyrido[4,3-d]pyrimidin-2-yl]oxymethyl]cyclopropyl]methyl]-4-fluoro-4-piperidyl]methyl]piperazin-1-yl]-3-methyl-2-oxo-benzimidazol-1-yl]piperidine-2,6-dione]

Compound: C#Cc1c(F)ccc2cc(O)cc(-c3ncc4c(N5CC6CCC(C5)N6)nc(OCC5(CN6CCC(CC7CCN(c8ccc9c(c8F)CN(C8CCC(=O)NC8=O)C9=O)CC7)CC6)CC5)nc4c3F)c12 (stereo not shown) [Compound 192, 3-{5-[4-({1-[(1-{[(4-{3,8-diazabicyclo[3.2.1]octan-3-yl}-7-(8-ethynyl-7-fluoro-3-hydroxynaphthalen-1-yl)-8-fluoropyrido[4,3-d]pyrimidin-2-yl)oxy]methyl}cyclopropyl)methyl]piperidin-4-yl}methyl)piperidin-1-yl]-4-fluoro-1-oxo-2,3-dihydro-1H-isoindol-2-yl}piperidine-2,6-dione]
Dmax: > 70%
DC50: < 5.1 µM

Compound: C#Cc1c(F)ccc2cc(O)cc(-c3ncc4c(N5CC6CCC(C5)N6)nc(OC[C@@H]5C[C@@H](OC6CCN(CC7(F)CCN(c8ccc9c(c8F)CN(C8CCC(=O)NC8=O)C9=O)CC7)CC6)CN5C)nc4c3F)c12 (stereo partly drawn) [Compound 112, 3-(5-{4-[(4-{[(3R,5S)-5-{[(4-{3,8-diazabicyclo[3.2.1]octan-3-yl}-7-(8-ethynyl-7-fluoro-3-hydroxynaphthalen-1-yl)-8-fluoropyrido[4,3-d]pyrimidin-2-yl)oxy]methyl}-1-methylpyrrolidin-3-yl]oxy}piperidin-1-yl)methyl]-4-fluoropiperidin-1-yl}-4-fluoro-1-oxo-2,3-dihydro-1H-isoindol-2-yl)piperidine-2,6-dione]
Dmax: > 70%
DC50: < 5.1 µM

Compound: C#Cc1c(F)ccc2cc(O)cc(-c3ncc4c(N5CC6CCC(C5)N6)nc(OCCN5CCC(CN6CCC(CC7CCN(c8ccc9c(c8)CN(C8CCC(=O)NC8=O)C9=O)CC7)CC6)CC5)nc4c3F)c12 (stereo not shown) [Compound 87, 3-[5-[4-[[1-[[1-[2-[4-(3,8-diazabicyclo[3.2.1]octan-3-yl)-7-(8-ethynyl-7-fluoro-3-hydroxy-1-naphthyl)-8-fluoropyrido[4,3-d]pyrimidin-2-yl]oxyethyl]-4-piperidyl]methyl]-4-piperidyl]methyl]-1-piperidyl]-1-oxo-isoindolin-2-yl]piperidine-2,6-dione]
Dmax: > 70%
DC50: < 5.1 µM

Compound: C#Cc1c(F)ccc2cc(O)cc(-c3ncc4c(N5CC6CCC(C5)N6)nc(OCCN5CCC(CC6CCN(CC7CCN(c8cc(C)c9c(c8F)CN(C8CCC(=O)NC8=O)C9=O)CC7)CC6)CC5)nc4c3F)c12 (stereo not shown) [Compound 149, 3-{5-[4-({4-[(1-{2-[(4-{3,8-diazabicyclo[3.2.1]octan-3-yl}-7-(8-ethynyl-7-fluoro-3-hydroxynaphthalen-1-yl)-8-fluoropyrido[4,3-d]pyrimidin-2-yl)oxy]ethyl}piperidin-4-yl)methyl]piperidin-1-yl}methyl)piperidin-1-yl]-4-fluoro-7-methyl-1-oxo-2,3-dihydro-1H-isoindol-2-yl}piperidine-2,6-dione]
Dmax: > 70%
DC50: < 5.1 µM

Compound: C#Cc1c(F)ccc2cc(O)cc(-c3ccc4c(N5CC6CCC(C5)N6)nc(OCCN5CCC(CN6CCC(CC7CCN(c8ccc9c(c8)n(C)c(=O)n9C8CCC(=O)NC8=O)CC7)CC6)CC5)nc4c3F)c12 (stereo not shown) [Compound 233]
Dmax: > 70%
DC50: < 5.1 µM

Compound: CCc1c(F)ccc2cc(O)cc(-c3ncc4c(N5CC6CCC(C5)N6)nc(OCCN5CCC(C)(CC6CCN(CC7CCN(c8ccc9c(c8)n(C)c(=O)n9C8CCC(=O)NC8=O)CC7)CC6)CC5)nc4c3F)c12 (stereo not shown) [Compound 179, 3-{5-[4-({4-[(1-{2-[(4-{3,8-diazabicyclo[3.2.1]octan-3-yl}-7-(8-ethyl-7-fluoro-3-hydroxynaphthalen-1-yl)-8-fluoropyrido[4,3-d]pyrimidin-2-yl)oxy]ethyl}-4-methylpiperidin-4-yl)methyl]piperidin-1-yl}methyl)piperidin-1-yl]-3-methyl-2-oxo-2,3-dihydro-1H-1,3-benzodiazol-1-yl}piperidine-2,6-dione]
Dmax: > 70%
DC50: < 5.1 µM

Compound: C#Cc1c(F)ccc2cc(O)cc(-c3ccc4c(N5CC6CCC(C5)N6)nc(OCCN5CCC(CC6CCN(CC7CCN(c8ccc9c(c8F)CN(C8CCC(=O)NC8=O)C9=O)CC7)CC6)CC5)nc4c3)c12 (stereo not shown) [Compound 108]
Dmax: ≤ 25%
DC50: < 5.1 µM
